Laboratory results as given in patent US5889029A, “Use of cotinine in treating psychiatric disorders” (priority 1997, dated 1999).
Where two headings read alike, the source gives them in different places.

Experiments:
[1] = biological target: T1, dopamine uptake site (Cavia porcellus, UniProt H0WCX4); experiment: Dopamine Reuptake Binding Assay; conditions: Guinea pig striatal membranes, [3H]WIN,35,428 1.0 nM
T1 construct: Guinea pig striatal membranes; from tissue; host or cells: guinea pig striatal membranes
T1 sequence (H0WCX4 1-619): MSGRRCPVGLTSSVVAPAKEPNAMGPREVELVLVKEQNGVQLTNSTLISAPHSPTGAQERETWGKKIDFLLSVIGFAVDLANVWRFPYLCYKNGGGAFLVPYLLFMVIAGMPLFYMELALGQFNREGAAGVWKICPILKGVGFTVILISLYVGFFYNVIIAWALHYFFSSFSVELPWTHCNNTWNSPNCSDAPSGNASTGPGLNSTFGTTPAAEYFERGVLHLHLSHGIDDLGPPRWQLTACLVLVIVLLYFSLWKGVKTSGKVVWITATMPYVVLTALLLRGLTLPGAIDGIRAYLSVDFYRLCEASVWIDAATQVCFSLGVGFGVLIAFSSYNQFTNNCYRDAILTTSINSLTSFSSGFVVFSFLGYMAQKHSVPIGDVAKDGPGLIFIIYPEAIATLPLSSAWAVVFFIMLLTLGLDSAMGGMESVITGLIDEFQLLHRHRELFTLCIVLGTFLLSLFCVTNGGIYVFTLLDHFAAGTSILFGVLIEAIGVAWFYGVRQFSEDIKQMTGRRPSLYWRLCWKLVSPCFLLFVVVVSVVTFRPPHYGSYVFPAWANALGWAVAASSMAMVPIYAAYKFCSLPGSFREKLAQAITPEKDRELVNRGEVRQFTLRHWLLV

[2] = biological target: T2, Histamine (H2) (Cavia porcellus, UniProt P47747); experiment: Histamine (H2) Binding Assay; set-up: species or system Guinea pig; conditions: Guinea pig striatal membranes, [3H]Tiotidine 4.0 nM, read-out: Receptor Binding Activity Percent Inhibition Average (N = 2)
T2 construct: Guinea pig striatal membranes; from tissue; host or cells: guinea pig striatal membranes
T2 sequence (P47747 whole entry): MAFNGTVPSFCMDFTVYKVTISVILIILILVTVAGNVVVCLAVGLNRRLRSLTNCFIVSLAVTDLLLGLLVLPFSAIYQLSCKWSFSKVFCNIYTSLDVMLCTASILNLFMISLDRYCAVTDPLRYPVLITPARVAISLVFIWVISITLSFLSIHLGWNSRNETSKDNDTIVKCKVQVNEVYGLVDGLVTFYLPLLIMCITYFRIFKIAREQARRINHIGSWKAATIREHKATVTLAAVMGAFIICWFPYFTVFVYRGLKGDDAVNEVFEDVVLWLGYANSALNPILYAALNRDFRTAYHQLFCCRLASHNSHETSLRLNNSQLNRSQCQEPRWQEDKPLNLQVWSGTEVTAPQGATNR

[3] = biological target: T3, Histamine (H3) (Rattus norvegicus, UniProt Q9QYN8); experiment: Histamine (H3) Binding Assay; conditions: Rat forebrain membranes, [3H]N^a-methylhistamine 0.2 nM, read-out: Receptor Binding Activity Percent Inhibition Average (N = 2)
T3 construct: Rat forebrain membranes; from tissue; host or cells: rat forebrain membranes
T3 sequence (Q9QYN8 whole entry): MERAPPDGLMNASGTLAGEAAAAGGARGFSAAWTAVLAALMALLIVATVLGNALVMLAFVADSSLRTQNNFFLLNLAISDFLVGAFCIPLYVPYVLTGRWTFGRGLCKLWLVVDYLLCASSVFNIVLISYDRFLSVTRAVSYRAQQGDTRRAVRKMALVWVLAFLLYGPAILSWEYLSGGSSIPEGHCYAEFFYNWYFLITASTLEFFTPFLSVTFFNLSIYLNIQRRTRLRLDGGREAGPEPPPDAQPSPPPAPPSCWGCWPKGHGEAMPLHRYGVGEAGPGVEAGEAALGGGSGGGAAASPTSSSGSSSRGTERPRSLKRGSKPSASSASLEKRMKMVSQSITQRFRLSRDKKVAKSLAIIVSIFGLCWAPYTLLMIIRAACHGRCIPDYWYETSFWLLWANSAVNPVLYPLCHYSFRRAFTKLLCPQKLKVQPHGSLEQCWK

[4] = biological target: T4, Serotonin (5HT1A) (Bos taurus, UniProt F6Q2H9); experiment: Serotonin (5HT1A) Binding Assay; set-up: species or system Bovine; conditions: Bovine hippocampal membranes, [3H]-8-OH-DPAT 1.0 nM, read-out: Receptor Binding Activity Percent Inhibition Average (N = 2)
T4 construct: Bovine hippocampal membranes; from tissue; host or cells: bovine hippocampal membranes
T4 sequence (F6Q2H9 1-422): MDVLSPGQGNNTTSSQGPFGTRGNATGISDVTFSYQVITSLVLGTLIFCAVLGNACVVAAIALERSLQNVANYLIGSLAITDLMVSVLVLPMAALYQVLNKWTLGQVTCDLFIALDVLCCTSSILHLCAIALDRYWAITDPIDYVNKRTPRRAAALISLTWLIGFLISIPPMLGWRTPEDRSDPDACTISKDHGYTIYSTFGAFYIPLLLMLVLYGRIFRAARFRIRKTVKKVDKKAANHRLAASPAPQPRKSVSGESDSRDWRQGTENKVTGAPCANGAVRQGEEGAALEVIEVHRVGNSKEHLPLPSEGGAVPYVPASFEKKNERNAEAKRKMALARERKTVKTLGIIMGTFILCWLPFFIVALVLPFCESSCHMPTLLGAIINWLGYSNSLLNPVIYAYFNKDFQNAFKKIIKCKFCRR

[5] = test system: Serotonin (Non-Selective); experiment: Serotonin (Non-Selective) Binding Assay; conditions: Rat cortical membranes, [3H]Lysergic acid diethylamide 5.0 nM
[6] = biological target: T5, Human recombinant M2 clone (Homo sapiens, UniProt P08172); experiment: Muscarinic--M2 Clone Binding Assay
T5 construct: expressed in transfected cells
T5 sequence (P08172 1-466): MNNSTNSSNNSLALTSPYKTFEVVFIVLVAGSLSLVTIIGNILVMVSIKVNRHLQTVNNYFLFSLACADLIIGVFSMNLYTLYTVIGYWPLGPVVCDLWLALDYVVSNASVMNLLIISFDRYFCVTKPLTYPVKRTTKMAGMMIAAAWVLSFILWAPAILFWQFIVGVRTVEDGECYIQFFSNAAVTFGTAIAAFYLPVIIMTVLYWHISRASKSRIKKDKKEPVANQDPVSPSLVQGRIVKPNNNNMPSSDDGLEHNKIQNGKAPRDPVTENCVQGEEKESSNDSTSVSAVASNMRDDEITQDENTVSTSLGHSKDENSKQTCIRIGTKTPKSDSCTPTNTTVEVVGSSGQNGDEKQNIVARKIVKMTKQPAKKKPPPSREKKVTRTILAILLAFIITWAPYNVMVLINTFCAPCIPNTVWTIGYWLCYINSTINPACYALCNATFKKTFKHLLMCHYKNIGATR

[7] = biological target: T6, recombinant Rat 5HT7 Clone (Rattus norvegicus, UniProt P32305); experiment: Serotonin--5HT7 Clone Binding Assay; conditions: [3H]LSD 2.0 nM, read-out: Receptor Binding Activity Percent Inhibition Average (N = 2)
T6 construct: expressed in transfected cells
T6 sequence (P32305 whole entry): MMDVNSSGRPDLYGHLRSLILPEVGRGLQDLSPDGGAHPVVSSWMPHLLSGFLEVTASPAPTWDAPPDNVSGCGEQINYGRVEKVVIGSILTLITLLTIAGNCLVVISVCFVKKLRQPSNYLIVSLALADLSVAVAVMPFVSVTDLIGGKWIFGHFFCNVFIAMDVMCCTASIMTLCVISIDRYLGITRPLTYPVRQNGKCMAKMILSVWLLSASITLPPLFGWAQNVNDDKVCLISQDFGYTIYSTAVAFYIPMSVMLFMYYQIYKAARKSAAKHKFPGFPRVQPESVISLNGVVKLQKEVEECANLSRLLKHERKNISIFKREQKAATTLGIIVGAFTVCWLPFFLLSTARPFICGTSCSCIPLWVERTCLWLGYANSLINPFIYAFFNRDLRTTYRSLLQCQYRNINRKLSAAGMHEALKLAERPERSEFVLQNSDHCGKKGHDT

[8] = intravenous; cats; cited from earlier work
[9] = cited from earlier work
[10] = read-out: Receptor Binding Activity Percent Inhibition Average (N = 2)

## CN1C(=O)CCC1c1cccnc1 (single isomer, unassigned) [Cotinine, 1-methyl-5-(3-pyridinyl)-2-pyrrolidionone]
[1]; 10^-4 M
  Receptor Binding Activity Percent Inhibition Average (N = 2): 7.5%
[1]; 10^-6 M
  Receptor Binding Activity Percent Inhibition Average (N = 2): 14.2%
[2]; 10^-4 M
  inhibition at 100 µM: -1.4%
[2]; 10^-6 M
  inhibition at 1 µM: 9.2%
[3]; 10^-4 M
  inhibition at 100 µM: 15.7%
[3]; 10^-6 M
  inhibition at 1 µM: 11.9%
[4]; 10^-4 M
  inhibition at 100 µM: 1.4%
[4]; 10^-6 M
  inhibition at 1 µM: 1.1%
[5]; 10^-4 M
  Receptor Binding Activity Percent Inhibition Average (N = 2): 12.1%
[5]; 10^-6 M
  Receptor Binding Activity Percent Inhibition Average (N = 2): 4.6%
[6]; muscarinic-2 receptor, human tissue
  effectiveness in binding relative to an equal concentration of nicotine, binding expressed as percent inhibition: about five
[6]; [10]
  inhibition at 1 µM: 22.3%
  inhibition at 100 µM: 21.6%
[7]; 10^-4 M
  inhibition at 100 µM: 6.4%
[7]; 10^-6 M
  inhibition at 1 µM: -0.3%
[8]
  EEG activity and behavioral arousal: increases only slightly
  blood pressure: only a slight decrease
[9]; human, in vivo
  terminal elimination half-life: about 16 hours
[9]; in the human, in vivo
  half-life: 16 to 17 h
[9]; in vivo, po
  oral bioavailability: complete
[9]; in vivo
  terminal elimination half-life: sixteen
[9]; nicotine: one-pack-a-day smoker, cotinine: one-half-pack-a-day smoker
  blood concentration in smokers: about 300 ng/ml
[9]; read-out: blood concentration in smokers, nicotine: one-pack-a-day smoker, cotinine: one-half-pack-a-day smoker
  concentration: ~2000 nM
